Columns and labels:
Type in all cases: cell-based
human TLR8 = molecular target: T1, human TLR8 (Homo sapiens, UniProt Q9NR97); assay: TLR8 inhibition reporter assay (HEK-Blue cells, SEAP reporter, R848 stimulation); settings: HEK-Blue cells overexpressing human TLR8, SEAP reporter, R848 15.9 μM
T1 construct: host or cells: HEK-Blue cells (HEK293-derived reporter line)
T1 sequence (Q9NR97 27-1041): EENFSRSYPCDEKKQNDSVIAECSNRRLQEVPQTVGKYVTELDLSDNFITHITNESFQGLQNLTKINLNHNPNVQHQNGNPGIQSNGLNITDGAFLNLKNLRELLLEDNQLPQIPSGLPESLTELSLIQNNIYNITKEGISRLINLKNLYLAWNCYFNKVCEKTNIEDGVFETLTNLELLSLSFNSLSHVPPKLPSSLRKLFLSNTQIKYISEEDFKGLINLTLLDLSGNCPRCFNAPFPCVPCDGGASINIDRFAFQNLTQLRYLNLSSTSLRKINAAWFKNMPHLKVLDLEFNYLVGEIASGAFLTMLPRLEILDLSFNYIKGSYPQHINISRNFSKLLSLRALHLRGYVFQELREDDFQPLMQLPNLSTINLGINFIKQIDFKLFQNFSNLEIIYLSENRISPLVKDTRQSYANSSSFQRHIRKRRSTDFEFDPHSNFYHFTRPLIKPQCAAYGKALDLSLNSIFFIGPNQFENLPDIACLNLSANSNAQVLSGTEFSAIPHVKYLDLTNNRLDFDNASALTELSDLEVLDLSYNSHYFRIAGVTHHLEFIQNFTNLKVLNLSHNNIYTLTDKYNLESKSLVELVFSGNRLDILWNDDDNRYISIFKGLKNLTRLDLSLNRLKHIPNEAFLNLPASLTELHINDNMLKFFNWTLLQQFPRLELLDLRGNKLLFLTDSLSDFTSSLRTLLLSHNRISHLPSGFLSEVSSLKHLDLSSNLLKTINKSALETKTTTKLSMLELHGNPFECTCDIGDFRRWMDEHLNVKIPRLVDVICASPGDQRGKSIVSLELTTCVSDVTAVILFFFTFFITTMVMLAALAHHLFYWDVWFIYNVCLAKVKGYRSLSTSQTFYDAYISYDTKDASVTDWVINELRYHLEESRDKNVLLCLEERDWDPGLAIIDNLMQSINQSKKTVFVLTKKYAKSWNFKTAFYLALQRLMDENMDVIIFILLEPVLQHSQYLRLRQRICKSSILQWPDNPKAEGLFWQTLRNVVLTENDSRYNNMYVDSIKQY
In short: (§1)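 Percent inhibition of agonist-induced SEAP secretion in HEK-Blue cells after 22 h at 37 °C. Stimuli: 7.5 μM gardiquimod, 15.9 μM R848, 5 nM ODN2006 for TLR7, TLR8 and TLR9, added after 30 min compound exposure over a 0.05 nM–50 μM range.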

human TLR9 = molecular target: T2, human TLR9 (Homo sapiens, UniProt Q9NR96); assay: TLR9 inhibition reporter assay (HEK-Blue cells, SEAP reporter, ODN2006 stimulation); settings: HEK-Blue cells overexpressing human TLR9, SEAP reporter, ODN2006 5 nM
T2 construct: host or cells: HEK-Blue cells (HEK293-derived reporter line)
T2 sequence (Q9NR96 26-1032): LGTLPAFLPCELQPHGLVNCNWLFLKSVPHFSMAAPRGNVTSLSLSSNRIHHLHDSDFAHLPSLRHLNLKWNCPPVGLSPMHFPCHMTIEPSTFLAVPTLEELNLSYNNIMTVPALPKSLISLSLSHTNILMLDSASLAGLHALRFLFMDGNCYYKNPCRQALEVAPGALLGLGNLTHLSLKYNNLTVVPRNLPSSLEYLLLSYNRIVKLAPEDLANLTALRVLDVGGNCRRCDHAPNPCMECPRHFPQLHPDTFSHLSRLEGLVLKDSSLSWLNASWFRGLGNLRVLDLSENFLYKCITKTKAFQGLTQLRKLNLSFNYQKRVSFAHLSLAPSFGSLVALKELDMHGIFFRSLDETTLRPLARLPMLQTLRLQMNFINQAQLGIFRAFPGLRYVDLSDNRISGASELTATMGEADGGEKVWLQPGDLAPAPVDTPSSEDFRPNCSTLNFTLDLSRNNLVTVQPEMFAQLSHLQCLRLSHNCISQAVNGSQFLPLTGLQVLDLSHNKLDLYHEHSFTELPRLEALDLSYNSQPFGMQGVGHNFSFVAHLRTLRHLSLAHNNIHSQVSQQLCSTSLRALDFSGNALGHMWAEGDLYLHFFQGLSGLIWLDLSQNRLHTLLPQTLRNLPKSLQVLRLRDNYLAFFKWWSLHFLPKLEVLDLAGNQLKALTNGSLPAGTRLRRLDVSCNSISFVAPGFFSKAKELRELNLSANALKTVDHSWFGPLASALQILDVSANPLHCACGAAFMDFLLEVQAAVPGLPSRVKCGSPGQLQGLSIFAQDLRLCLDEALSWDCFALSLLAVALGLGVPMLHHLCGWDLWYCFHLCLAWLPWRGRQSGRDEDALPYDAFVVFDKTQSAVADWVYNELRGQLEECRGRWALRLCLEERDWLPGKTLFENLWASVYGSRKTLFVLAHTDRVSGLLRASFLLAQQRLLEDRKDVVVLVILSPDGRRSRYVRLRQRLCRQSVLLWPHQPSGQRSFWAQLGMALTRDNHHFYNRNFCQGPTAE
In short: as §1

human TLR7 = molecular target: T3, human TLR7 (Homo sapiens, UniProt Q9NYK1); assay: TLR7 inhibition reporter assay (HEK-Blue cells, SEAP reporter, gardiquimod stimulation); settings: HEK-Blue cells overexpressing human TLR7, SEAP reporter, gardiquimod 7.5 μM
T3 construct: host or cells: HEK-Blue cells (HEK293-derived reporter line)
T3 sequence (Q9NYK1 27-1049): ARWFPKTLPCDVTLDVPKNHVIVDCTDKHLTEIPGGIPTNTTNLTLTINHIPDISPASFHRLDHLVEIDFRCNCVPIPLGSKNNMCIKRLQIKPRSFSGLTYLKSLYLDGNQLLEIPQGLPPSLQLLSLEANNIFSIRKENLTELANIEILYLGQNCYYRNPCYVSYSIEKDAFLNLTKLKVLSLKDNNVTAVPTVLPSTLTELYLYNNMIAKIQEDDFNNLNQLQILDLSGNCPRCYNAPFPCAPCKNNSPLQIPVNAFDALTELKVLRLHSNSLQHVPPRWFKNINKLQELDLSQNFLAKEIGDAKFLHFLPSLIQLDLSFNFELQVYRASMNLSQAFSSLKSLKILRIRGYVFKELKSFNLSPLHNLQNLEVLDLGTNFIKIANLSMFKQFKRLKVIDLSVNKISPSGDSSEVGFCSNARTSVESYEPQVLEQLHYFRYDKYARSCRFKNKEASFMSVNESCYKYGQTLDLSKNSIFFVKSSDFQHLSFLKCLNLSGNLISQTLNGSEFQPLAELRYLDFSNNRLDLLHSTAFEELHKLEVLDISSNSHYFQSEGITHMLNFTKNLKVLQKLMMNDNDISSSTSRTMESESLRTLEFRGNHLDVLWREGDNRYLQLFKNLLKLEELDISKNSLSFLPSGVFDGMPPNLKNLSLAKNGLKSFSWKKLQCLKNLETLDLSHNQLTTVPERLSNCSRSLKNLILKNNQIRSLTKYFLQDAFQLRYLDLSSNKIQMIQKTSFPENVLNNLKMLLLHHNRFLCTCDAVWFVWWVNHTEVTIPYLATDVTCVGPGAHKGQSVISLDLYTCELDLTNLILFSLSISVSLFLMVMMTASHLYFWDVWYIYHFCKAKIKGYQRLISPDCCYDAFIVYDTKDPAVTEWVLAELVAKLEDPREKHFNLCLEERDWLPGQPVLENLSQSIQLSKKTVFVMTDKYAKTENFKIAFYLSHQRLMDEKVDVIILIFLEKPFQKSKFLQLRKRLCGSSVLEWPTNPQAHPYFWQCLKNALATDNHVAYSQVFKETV
In short: as §1

| Structure (SMILES) | IC50 (human TLR8) | IC50 (human TLR9) | IC50 (human TLR7) |
| --- | --- | --- | --- |
| CC(C)c1c(-c2ccnc3[nH]ncc23)[nH]c2ccc(C3CCN(Cc4cn5ccccc5n4)CC3)cc12 [Example 862, 4-(5-(1-(imidazo[1,2-a]pyridin-2-ylmethyl)piperidin-4-yl)-3-isopropyl-1H-indol-2-yl)-1H-pyrazolo[3,4-b]pyridine] | < 0.1 µM | 1 to 50 µM | < 0.1 µM |
| CC(C)c1c(-c2ccc(C#N)c3[nH]ncc23)[nH]c2ccc(C3CCNCC3)cc12 [Example 235, 4-(3-isopropyl-5-(piperidin-4-yl)-1H-indol-2-yl)-1H-indazole-7-carbonitrile] | 1 to 50 µM | 1 to 50 µM | 1 to 50 µM |
| COc1cc(-c2[nH]c3ccc(C4CCN(CC(C)(C)O)CC4)cc3c2C(C)C)cc2nccn12 [Example 758, 1-(4-(3-isopropyl-2-(5-methoxyimidazo[1,2-a]pyridin-7-yl)-1H-indol-5-yl)piperidin-1-yl)-2-methylpropan-2-ol] | < 0.1 µM | 0.1 to 1 µM | 0.1 to 1 µM |
| COc1cc(-c2[nH]c3ccc(C4CCN(CC(=O)N(C)C)CC4)cc3c2C(C)C)cn2cc(C(=O)N(C)C)nc12 [Example 432, 6-(5-(1-(2-(dimethylamino)-2-oxoethyl)piperidin-4-yl)-3-isopropyl-1H-indol-2-yl)-8-methoxy-N,N-dimethylimidazo[1,2-a]pyridine-2-carboxamide] | < 0.1 µM | 1 to 50 µM | < 0.1 µM |
| CC(C)c1c(-c2cn(C)c3ncccc23)[nH]c2ccc(C3CCN(C(=O)CN(C)C)CC3)cc12 [Example 463, 2-(dimethylamino)-1-(4-(3-isopropyl-2-(1-methyl-1H-pyrrolo[2,3-b]pyridin-3-yl)-1H-indol-5-yl)piperidin-1-yl)ethan-1-one] | < 0.1 µM | 1 to 50 µM | < 0.1 µM |
| Cc1cn2cc(-c3[nH]c4ccc(C5CCN(Cc6c[nH]c(C)n6)CC5)cc4c3C(C)C)ccc2n1 [Example 937, 6-(3-isopropyl-5-(1-((2-methyl-1H-imidazol-4-yl)methyl)piperidin-4-yl)-1H-indol-2-yl)-2-methylimidazo[1,2-a]pyridine] | 0.1 to 1 µM | < 0.1 µM | < 0.1 µM |
| CNC(=O)CN1CCC(c2ccc3[nH]c(-c4ccn5nccc5c4)c(C(C)C)c3c2)CC1 [Example 405, 2-(4-(3-isopropyl-2-(pyrazolo[1,5-a]pyridin-5-yl)-1H-indol-5-yl)piperidin-1-yl)-N-methylacetamide] | < 0.1 µM | 1 to 50 µM | < 0.1 µM |
| CC(C)c1c(-c2ccn3c(=O)[nH]nc3c2)[nH]c2ccc(C3CCNCC3)cc12 [Example 199, 7-(3-isopropyl-5-(piperidin-4-yl)-1H-indol-2-yl)-[1,2,4]triazolo[4,3-a]pyridin-3(2H)-one] | < 0.1 µM | 0.1 to 1 µM | < 0.1 µM |
| Cc1cc(-c2[nH]c3ccc(C4CCN(C(=O)CCN5[C@@H]6CC[C@H]5COC6)CC4)cc3c2C(C)C)cn2nnnc12 [Example 635, 3-((1R,5S)-3-oxa-8-azabicyclo[3.2.1]octan-8-yl)-1-(4-(3-isopropyl-2-(8-methyltetrazolo[1,5-a]pyridin-6-yl)-1H-indol-5-yl)piperidin-1-yl)propan-1-one] | < 0.1 µM | 1 to 50 µM | < 0.1 µM |
| Cc1cc(-c2[nH]c3ccc(C4CCN(C(=O)CN(C)C(C)(C)C)CC4)cc3c2C(C)C)cn2nnnc12 [Example 481, 2-(tert-butyl(methyl)amino)-1-(4-(3-isopropyl-2-(8-methyltetrazolo[1,5-a]pyridin-6-yl)-1H-indol-5-yl)piperidin-1-yl)ethan-1-one] | < 0.1 µM | 1 to 50 µM | < 0.1 µM |
| Cc1cc2cc(-c3[nH]c4ccc(C5CCNCC5)cc4c3C(C)C)cc(C)n2n1 [Example 142, 5-(3-isopropyl-5-(piperidin-4-yl)-1H-indol-2-yl)-2,7-dimethylpyrazolo[1,5-a]pyridine] | < 0.1 µM | 1 to 50 µM | < 0.1 µM |
| CC(C)c1c(-c2ccc(C#N)c3ncccc23)[nH]c2ccc(C3CCN(C(=O)CN(C)C)CC3)cc12 [Example 506, 5-(5-(1-(dimethylglycyl)piperidin-4-yl)-3-isopropyl-1H-indol-2-yl)quinoline-8-carbonitrile] | < 0.1 µM | 1 to 50 µM | < 0.1 µM |
| CC(C)c1c(-c2ccnc3[nH]ncc23)[nH]c2ccc(C3CCN(CC(C)(C)CN(C)C)CC3)cc12 [Example 847, 3-(4-(3-isopropyl-2-(1H-pyrazolo[3,4-b]pyridin-4-yl)-1H-indol-5-yl)piperidin-1-yl)-N,N,2,2-tetramethylpropan-1-amine] | < 0.1 µM | 0.1 to 1 µM | < 0.1 µM |
| CCc1c(-c2ccnc3[nH]ccc23)[nH]c2ccc(C3CCN(C4CCN(CC(C)C)CC4)CC3)cc12 [Example 849, 4-(3-ethyl-5-(1′-isobutyl-[1,4′-bipiperidin]-4-yl)-1H-indol-2-yl)-1H-pyrrolo[2,3-b]pyridine] | < 0.1 µM | 0.1 to 1 µM | 0.1 to 1 µM |

Reference: US11739098B2 (BRISTOL-MYERS SQUIBB COMPANY, priority 2017, dated 2023)
